Reference: paper PMC11058299, “Synthesis, molecular docking evaluation for LOX and COX-2 inhibition and determination of in-vivo analgesic potentials of aurone derivatives” (Heliyon, 2024)
Values joined by “and” are separate entries in the source; they are usually repeats but may differ in a detail not shown here. Equal entries are not always repeated.

How the values were obtained:
[1] = test system: formalin induced paw licking; experiment: Formalin induced paw licking test; format: in vivo; settings: 20 mg/kg oral, mice
Method: The animals were divided into various groups I-XVI consisting of 8 experimental animals for control, sample compounds (WE-1 to WE-7) and standard. Group I: Control, Group II-XV: WE-1 to WE-7 (sample compounds) at dose of 10 mg/kg and 20 mg/kg and Group XVI: Standard. The control (Group I) was given normal saline. Group II-XV received 10 mg/kg and 20 mg/kg of test sample (WE-1 to WE-7). […] The acute peripheral and centrally mediated analgesic activity of aurone derivatives was evaluated using the formalin-induced pain method, as described. Samples compounds (WE-1 to WE-7) and a standard (Indomethacin 10 mg) were orally administered 30 min prior to 20 μl of 1 % formalin injection (prepared in 0.9 % saline) in right hind paw of the mice and immediately placed in a clear box to observe the animal's reaction. Paw licking or biting within 0–5 min indicated Phase 1, while animal reactions observed between 15 and 30 min indicated Phase 2. The number of paw licking or biting events was compared to the control group, and the percentage of inhibition was calculated.

[2] = test system: heat induced tail flicking latency; experiment: Tail immersion test; format: in vivo; settings: mice; for tail flicking latency: after 90 min, without Naloxone
Method: Group I: Control, Group II-XV: WE-1 to WE-7 (sample compounds) at dose of 10 mg/kg and 20 mg/kg and Group XVI: Standard. The control (Group I) was given normal saline. Group II-XV received 10 mg/kg and 20 mg/kg of test sample (WE-1 to WE-7).
The cut-off time was set at 25 s, and the time taken for the mice to flick their tails out of the water was recorded at 30, 60, 90, and 120-min intervals. An increase in the time of tail immersion was compared to the control group to determine the analgesic effect of the tested drugs. The percentage of inhibition was calculated at the time interval showing the highest effect.

## COc1ccc(C=C2Oc3ccccc3C2=O)cc1OC [WE-4, 2-(3,4-dimethoxybenzylidene)benzofuran-3(2H)-one]
[1]; initial phase
  percentage inhibition of paw licking, Phase I: 49.97%
[1]; late phase
  percentage inhibition of paw licking, Phase II: 70.93% and 70.96%
[1]; late phase, control 55.81 ± 3.29
  number of formalin-induced paw licking, Phase II: 16.22 ± 1.86
[2]; 10 mg/kg
  tail flicking latency: 11.23 ± 0.93
[2]; 20 mg/kg oral, at interval of highest effect
  percentage inhibition of pain, tail immersion: 74.31%
[2]; 20 mg/kg
  tail flicking latency: 13.41 ± 1.21
